Data from patent US20120142722A1, “CONJUGATES OF CYTOTOXIC DRUGS” (priority 2009, published 2012).
Several values for one entry are separate records, joined by “and”; a condition that tells them apart may be missing. Equal values may be shown once. Entries after “also recorded” stand apart in the source; their conditions may differ. Read-outs that look alike come from different tables or passages of the source.

What was measured:
A375 melanoma tumors = test: Tumor growth inhibition in subcutaneous A375 melanoma xenograft; type: in vivo, athymic nude mice
A375-melanoma cells = test: In vitro cytotoxicity, XTT tetrazolium dye reduction cell viability assay; type: cell-based; settings: Homo sapiens
[1] = Maximal tolerated dose in healthy nude mice; settings: female, athymic (nu/nu), mouse, in vivo, iv; i.v. on 5 consecutive days; determined 24 hr after the last dose; no lethality and body weight loss <20%
Procedure: Increasing doses of ATT-11E were tested on nude mice for their effect on body weight. Healthy female athymic (nu/nu) mice (6-8 weeks) (Harlan Inc., Jerusalem, Israel) were used for determination of maximum tolerable dose (MTD). MTD was defined as the maximum dose that caused no drug-related lethality and that produced animal body weight loss of <20% of original weight. ATT-11E was dissolved in phosphate buffer (pH 7.4) containing 10% DMSO and 30% cremophor and administered by i.v. injection. ATT-11E was administered on 5 consecutive days. Body weight of mice was monitored daily and MTD was determined 24 hr post last dose.

[2] = mouse, in vivo
[3] = White blood cell count in A375 tumor bearing mice; type: in vivo; settings: ATT-1 3 doses of 30 mg/kg, CCNU 6 doses of 15 mg/kg; tested 1 and 4 days post last dose
Procedure: Repeated doses of ATT-1 (3 doses of 30 mg/kg) and CCNU (6 doses of 15 mg/kg) were administered to A375 tumor bearing mice and WBC was tested (at AML, Herzelia, Israel) 1 and 4 days post last dose.

[4] = A-375, 48 h, read-out: IC50 (inhibitory concentration of 50% of cells)
[5] = female, beagle, dog, in vivo, iv, 6 mg/kg

In the case of CCOC(=O)C(C)(CCC1CCN(C(=O)Oc2ccc3nc4c(c(CC)c3c2)Cn2c-4cc3c(c2=O)COC(=O)C3(O)CC)CC1)C(=O)OCC (stereo not shown) [ATT-11E], the “% inhibition” value (A375 melanoma tumors; mouse, in vivo, 1 mg/kg) is reported as 54%, the T/C (A375 melanoma tumors; mouse, in vivo, 1 mg/kg) is reported as 0.46 and 0.62 and the “% inhibition” value (A375 melanoma tumors; mouse, in vivo, 2.5 mg/kg) is reported as 65%. For the same molecule, the T/C (A375 melanoma tumors; mouse, in vivo, 2.5 mg/kg) was 0.35, the T/C (A375 melanoma tumors; mouse, in vivo, 3 mg/kg) was 0.41 and the “% inhibition” value (A375 melanoma tumors; mouse, in vivo, 5 mg/kg) was 72%. For the same molecule, the T/C (A375 melanoma tumors; mouse, in vivo, 5 mg/kg) was 0.28, the T/C (A375 melanoma tumors; mouse, in vivo, 9 mg/kg) was 0.39 and the “% inhibition” value (A375 melanoma tumors; mouse, in vivo, 20 mg/kg) was 88%. For the same molecule, the “Tumor volume growth inhibition (TVI)” value (A375 melanoma tumors; mouse, in vivo, 20 mg/kg) was 97%, the “% inhibition” value (A375 melanoma tumors; mouse, in vivo, 30 mg/kg) was 93% and the T/C (A375 melanoma tumors; mouse, in vivo, 30 mg/kg) was 0.07. The T/C (A375 melanoma tumors; mouse, in vivo, 40 mg/kg) was 0.1, the “Tumor volume growth inhibition (TVI)” value (A375 melanoma tumors; mouse, in vivo, 40 mg/kg) was 90% and the IC50 (A375-melanoma cells; A-375, 24 h) was 0.6 µM. For the same molecule, the IC50 (A375-melanoma cells; [4]) was 0.6 µM and the MTD at 5 days [1] was over 40 mg/kg.

With CCCCCC(CCC1CCC(NC(=O)N(CCCl)N=O)CC1)(C(=O)O)C(=O)O (stereo not shown) [ATT-1] the T/C (A375 melanoma tumors; mouse, in vivo) was 0.24, the “T/C, ratio of tumor volume of treated compared to control” value (A375 melanoma tumors; mouse, in vivo) was 0.33 and the “T/C, tumor volume treated compared to control” value (A375 melanoma tumors; mouse, in vivo) was 0.52. For the same molecule, the Tumor growth inhibition (A375 melanoma tumors; mouse, in vivo) was 48% and 76%, the “Tumor growth inhibition compared with control” value (A375 melanoma tumors; mouse, in vivo) was 77% and 73% and the IC50 (A375-melanoma cells; [4]) was 545 µM. For the same molecule, the Weight loss [2] was 14% and the “Reduction of WBC compared to the control” value [3] was 27%.

In the case of O=NN(CCCl)C(=O)NC1CCCCC1 [CCNU, Chloroethylcyclo-hexylnitrosourea, reference compound], the “T/C, tumor volume treated compared to control” value (A375 melanoma tumors; equal total dose: ATT-1 3 doses of 30 mg/kg, CCNU 6 doses of 15 mg/kg, day 23) is reported as 0.47, the Tumor growth inhibition (A375 melanoma tumors; equi-molar doses: ATT-1 3×30 mg/kg, CCNU 3×15 mg/kg) is reported as 48% and the T/C (A375 melanoma tumors; equi-molar doses: ATT-1 3×30 mg/kg, CCNU 3×15 mg/kg, day 30) is reported as 0.56. For the same molecule, the IC50 (A375-melanoma cells; A-375, 48 h, A375 cells, 48 hours of incubation, XTT, read-out: IC50 (inhibitory concentration of 50% of cells)) was 200 µM, the Weight loss [2] was 19% and the “Reduction of WBC compared to the control” value [3] was 89%.

With CCc1c2c(nc3ccc(OC(=O)N4CCC(N5CCCCC5)CC4)cc13)-c1cc3c(c(=O)n1C2)COC(=O)[C@]3(O)CC [CPT-11, Irinotecan, reference compound] the “Plasma level of derived SN-38 at 24 hours after administration (in words)” value (6 mg/kg intravenous, beagle dogs, 24 hours) was “below detection level”, the “Tumor growth delay after the last dose (in words)” value (A375 melanoma tumors; i.v., ATT-11TBE 20 mg/kg 3 times a week (9 doses), CPT-11 75 mg/kg once a week for three weeks, 22 days after the last dose) was “never reached the complete tumor regression” and the IC50 (A375-melanoma cells; A-375, 24 h, A375 cells, Example 10, incubated for 24 hr, XTT, read-out: IC50) was 44 µM. It also gave an IC50 (A375-melanoma cells; A-375, 24 h, A375 cells, Example 15 / FIG. 14, 24 hours of incubation, read-out: IC50) of 9 µM.

In the case of CCc1c2c(nc3ccc(OC(=O)N4CCC(CCC(C)(C(=O)OC(C)(C)C)C(=O)OC(C)(C)C)CC4)cc13)-c1cc3c(c(=O)n1C2)COC(=O)C3(O)CC (stereo not shown) [ATT-11TBE], the “Plasma level of derived SN-38 at 24 hours after administration (in words)” value (dog, in vivo) is reported as “still detectable”, the “AUC of metabolite SN-38, fold larger than SN-38 derived from CPT-11” value [5] is reported as 3.6 fold and the “Plasma half-life (t1/2) of metabolite SN-38, fold longer than SN-38 derived from CPT-11” value [5] is reported as 3.1 fold. For the same molecule, the “Tumor growth delay after the last dose (in words)” value (A375 melanoma tumors; mouse, in vivo) was “complete tumor regression; also recorded: substantially inhibited tumor growth, even 22 days after the last dose”, the “Tumor volume growth inhibition (TVI)” value (A375 melanoma tumors; mouse, in vivo, 5 mg/kg) was 97% and the “Tumor volume growth inhibition (TVI)” value (A375 melanoma tumors; mouse, in vivo, 20 mg/kg) was 100%. The IC50 (A375-melanoma cells; A-375, 24 h) was 0.8 µM.

Molecule CCOC(=O)C(C)(CCC1CCC(NC(=O)N(CCCl)N=O)CC1)C(=O)OCC (stereo not shown) [ATT-5E] has an IC50 (A375-melanoma cells; [4]) of 130 µM.
